How the values were obtained:
Assay type in all cases: cell-based, human
MDA-MB-231 cells [1] = assay: In vitro invasion assay (BioCoat Matrigel Invasion Chambers); conditions: MβCD 4 mM, calyculin A 0.5 nM; drugs added in both sides; 24 h; FIG. 10b
Procedure: In vitro invasion and migration assays. For invasion and migration assays, we used BioCoat Matrigel Invasion Chambers (Corning) and 8.0 μm PET trans-migration inserts (Corning), respectively. In the invasion assay, 1×10^5 cells were suspended in serum-free medium and seeded on top of the chamber's membrane, in which medium containing serum was placed at the bottom. For MβCD or calyculin A treatment, drugs were added in both sides. Low-invasive epithelial (MCF10A, AU565, and MCF7) cells and MDA-MB-231 cells were incubated for 36 h and 24 h, respectively, and then fixed in 4% formaldehyde. Invaded cells were imaged using a BZ-X700 microscope (Keyence) with 10× magnification and counted. In the migration assay, 5×10^4 cells were seeded on top of the PET membrane, incubated for 24 h, and analyzed as described for the invasion assay. For the quantification of invasive structures grown in 3D on-top culture (FIGS. 5a and b), the elongated mesenchymal-like and rounded morphologies were defined as invasive and non-invasive phenotypes, respectively, and quantified.

[2] = test system: GFP-FBP17 in MDA-MB-231 cells; assay: Confocal quantification of GFP-FBP17 puncta at the plasma membrane; conditions: FIG. 5g, 11c, 11e
Procedure: Confocal microscopy, live-cell imaging, and image analysis. For immunofluorescence analysis, cells were fixed with 4% formaldehyde in phosphate-buffered saline (PBS) for 10 min and permeabilized with 0.2% Triton X-100 for 10 min in PBS. Cells were blocked with 5% goat serum (Sigma-Aldrich) in PBS for 1 h and were incubated with primary antibodies for at least 3 h. Then, cells were incubated with secondary antibodies for 1 h. For membrane visualization, Alexa Fluor™ 350 conjugated wheat germ agglutinin (WGA) (Thermo Scientific) was incubated with fixed cells for 30 min before permeabilization. For visualization of F-actin, Alexa Fluor™ 568 Phalloidin (Thermo Scientific) was incubated with fixed cells for 30 min. Fluorescence images were captured using a confocal microscopy system (FluoView 1000-D; Olympus) equipped with 405-, 473-, and 568-nm diode lasers through an objective lens (60× oil immersion objective, NA=1.35). […] The aspect ratio was determined as a ratio of the major cell axis length to minor cell axis length, which was calculated automatically by Image J. We observed that elongated cells typically have an aspect ratio of 5-8, whereas that of amoeboid cells is 2-3. […] The mean intensity of pERM or F-actin all along the membrane regions was then calculated and divided by their mean intensities throughout the cytosol (avoiding the nucleus). […]

MDA-MB-231 cells [3] = assay: Tether force measurement with optical tweezers and estimation of PM tension; conditions: MβCD 4 mM vs mock (FIG. 10c), MA-ezrin expression vs parental (FIG. 4a)
Procedure: Tether force measurement with optical tweezers and the estimation of PM tension. Tether force measurements were performed with an optical tweezers system (NanoTracker™ 2, JPK Instruments) equipped with an infrared (IR) laser source (3 W, 1064 nm) on an Olympus IX-73 inverted microscope with a 60×(numerical aperture=1.2) water immersion objective (Olympus). Silica beads (1.5 μm diameter, Polysciences) were incubated with concanavalin A (Sigma-Aldrich) at 1 mg/ml for 1 h. Cells were plated onto glass-bottom dishes (WPI). Coated beads were added to the cell culture medium supplemented with 25 mM HEPES (pH 7.5), and experiments were performed at 37° C. Tether force (F) can be calculated using Hooke's law: F=kΔx, where k is the stiffness of the trap and Δx is the displacement of the bead from the trap center. […] The displacement of the bead in the trap center (Δx) was determined by a quadrant photodiode detector with high precision (the resolution less than 1 nm). […] To compare PM tension between non-motile epithelial cells and malignant cells, we measured the tethering force on the lateral sides of cells. […]
PM tension can be estimated with the following formula: T=Ftether^2/8Bπ^2, where T is the apparent plasma membrane tension (PM tension), Ftether is the tether force measured by optical tweezers, and B is the bending stiffness of the membrane. […]

Compound	invasive ability (drug-treated cells that invaded through Matrigel) (MDA-MB-231 cells [1])	recruitment / accumulation of GFP-FBP17 at the PM [2]	PM tension (estimated from tether force) (MDA-MB-231 cells [3])
methyl-β-cyclodextrin [MβCD]	significantly reduced	sufficient to prevent	increases
COC[C@@H]([C@H](O)[C@H](O)C(=O)NCC[C@H](C)c1nc(/C=C/C[C@@H]2O[C@]3(C[C@@H](O)[C@@H]2C)O[C@H]([C@H](C[C@H](O)[C@H](C)[C@H](O)[C@H](C)/C=C(C)/C(C)=C/C=C/C(C)=C\C#N)OC)[C@H](OP(=O)(O)O)C3(C)C)co1)N(C)C [calyculin A]	no effect	–	–

From US20240167037A1, “CANCER THERAPY” (NATIONAL UNIVERSITY CORPORATION KOBE UNIVERSITY, priority 2021, published 2024)
